Experimental data reported in ChEMBL document CHEMBL3046930, “Germination and growth inhibitors from wheat (Triticum aestivum L.) husks” (2002).
Activity calls are given as the source filed them.

How the values were obtained:
Assay type in all cases: functional
Triticum aestivum [1] = assay: Inhibition of intact Triticum aestivum (wheat) seed germination assessed as appearance of sprouts at 500 ppm after 4 days relative to wheat grains RL4137 germination
Triticum aestivum [2] = assay: Inhibition of intact Triticum aestivum (wheat) seed germination assessed as appearance of distinct rootlets at 500 ppm after 4 days relative to wheat grains RL4137 germination
Triticum aestivum [3] = assay: Growth inhibition of intact Triticum aestivum (wheat) seed assessed as appearance of distinct rootlets at 500 ppm after 4 days relative to wheat grains RL4137 germination
Triticum aestivum [4] = assay: Growth inhibition of intact Triticum aestivum (wheat) seed assessed as appearance of sprouts at 500 ppm after 4 days relative to wheat grains RL4137 germination

CC1(C)CCCC2(C)OC(=O)C=C12 (racemic)
active: inhibition (Triticum aestivum [1]) | inhibition (Triticum aestivum [2]) | growth inhibition (GI) (Triticum aestivum [3]) | growth inhibition (GI) (Triticum aestivum [4])

CC1(C)CCC[C@@]2(C)OC(=O)C=C12
active: inhibition (Triticum aestivum [1]) | inhibition (Triticum aestivum [2]) | growth inhibition (GI) (Triticum aestivum [3]) | growth inhibition (GI) (Triticum aestivum [4])

CC(O)c1ccccc1 (racemic)
active: inhibition (Triticum aestivum [1]) | inhibition (Triticum aestivum [2]) | growth inhibition (GI) (Triticum aestivum [3]) | growth inhibition (GI) (Triticum aestivum [4])

C[C@H](O)c1ccccc1
active: inhibition (Triticum aestivum [1]) | inhibition (Triticum aestivum [2]) | growth inhibition (GI) (Triticum aestivum [3]) | growth inhibition (GI) (Triticum aestivum [4])

CC1(C)CCC[C@]2(C)OC(=O)C=C12
active: inhibition (Triticum aestivum [1]) | inhibition (Triticum aestivum [2]) | growth inhibition (GI) (Triticum aestivum [3]) | growth inhibition (GI) (Triticum aestivum [4])

C[C@@H](O)c1ccccc1
active: inhibition (Triticum aestivum [1]) | inhibition (Triticum aestivum [2]) | growth inhibition (GI) (Triticum aestivum [3]) | growth inhibition (GI) (Triticum aestivum [4])
